pEC50: −log10 of the molar value. Where a name gives a salt, the structure may show the parent alone. Read-outs that look alike come from different tables or passages of the source.
What was measured:
[1] = tested on: RG2 Glioma; experiment: WST-1 cytotoxic screening, RG2 Glioma; conditions: for pEC50: read-out: Effective concentration for 50% cell death (EC50)
Procedure: (§1) Thus, the inventors examined the in vitro effect of several ATP-dependent potassium channel agonists on cell viability in a wide range of tumor and normal cells.
(§2) Table 1 depicts the in vitro effect of KATP channel agonists on cell viability in a range of tumor and normal cells. The cytotoxic screening assay (WST-1 assay; Roche Diagnostics) results shown are the effective KATP channel agonist concentration (μM) required for 50% cell death (EC50) after exposure to the same for 24 hours. Indicated percentages are the percent viable cells remaining after treatment with 1000 μM of KATP channel agonists.

[2] = tested on: GL-26 Glioma; experiment: cells; conditions: read-out: Effective concentration for 50% cell death (EC50)
Procedure: as §1, §2

[3] = tested on: U87 human glioma; experiment: WST-1 cytotoxic screening, U87 Glioma; conditions: for pEC50: read-out: Effective concentration for 50% cell death (EC50)
Procedure: as §1, §2

[4] = tested on: MDA-231 Breast Cancer; experiment: WST-1 cytotoxic screening, MDA-231 Breast Cancer; type: cell-based; conditions: read-out: Effective concentration for 50% cell death (EC50)
Procedure: as §1, §2

[5] = tested on: CRL5904 NSC Lung Cancer; experiment: WST-1 cytotoxic screening, CRL5904 NSC Lung Cancer; conditions: for pEC50: read-out: Effective concentration for 50% cell death (EC50); for viability at 1000 µM: read-out: percentage of viable cells remaining
Procedure: as §1, §2

[6] = tested on: HT-29 human colon cancer; experiment: WST-1 cytotoxic screening, HT-29 Colon Cancer; conditions: for pEC50: read-out: Effective concentration for 50% cell death (EC50)
Procedure: as §1, §2

[7] = tested on: HBMVEC Endothelial; experiment: WST-1 cytotoxic screening, HBMVEC Endothelial; conditions: read-out: Effective concentration for 50% cell death (EC50)
Procedure: as §1, §2

[8] = tested on: unmodified GL26 cells; experiment: GL26 drug cytotoxicity screens; type: cell-based, murine; conditions: drug 125-1000 μM, read-out: EC50 (concentrations giving 50% killing)
Procedure: GL26 drug cytotoxicity (EC50, concentrations giving 50% killing) screens were performed with the results depicted in Table 2.

[9] = tested on: 9L Glioma; experiment: WST-1 cytotoxic screening, 9L Glioma; type: cell-based; conditions: for pEC50: treatment for 24 hours, read-out: Effective concentration for 50% cell death (EC50)
Procedure: as §1, §2

[10] = tested on: C6 rat glioma; experiment: WST-1 cytotoxic screening, C6 Glioma; conditions: for pEC50: 24 h, read-out: Effective concentration for 50% cell death (EC50)
Procedure: as §1, §2

[11] = tested on: DNTC-1 Astrocytes; experiment: WST-1 cytotoxic screening, DNTC-1 Astrocytes; type: cell-based; conditions: Astrocyte, treatment for 24 hours, read-out: Effective concentration for 50% cell death (EC50)
Procedure: as §1, §2

[12] = WST-1 cytotoxic screening, HBMVEC Endothelial; conditions: human, HBMVEC endothelial cells (non-cancer)
Procedure: as §1, §2

[13] = tested on: GL26 glioma; experiment: Survival of mice with intracranial GL26 glioma; type: in vivo; conditions: for survival, C57BL/6 (WT) relative to nu/nu mice: 2.7 mg/kg days 7-9 after GL26 implantation, log-rank; for survival: 2.7 mg/kg i.v. days 7-9 after intracranial GL26 implantation, 2.7 mg/kg
Procedure: FIG. 1 depicts T cell-induced chemosensitization of murine glioma in accordance with an embodiment of the present invention. Fifty thousand (50,000) GL26 tumor cells in […] 1% methylcellulose were implanted i.c. into anesthetized female C57BL/6J (black lines) or nu/nu (gray lines) mice aged 6-8 weeks using a stereotactic rodent frame. Injection was 1 mm posterior and 2.5 mm lateral to the junction of the coronal and saggital sutures (bregma), at a depth of 2 mm. Vaccinated mice received 2, subcutaneous injections of 2×106 tumor lysate-pulsed, irradiated cultured DC2.4 dendritic cells in […] sterile PBS as vaccine on day 3 and 7 post tumor implantation, and a chemotherapeutic drug (dosage: 2.7 mg/kg minoxidil sulfate) was administered on days 7, 8, and 9 post tumor implantation. […] Survival differences were assessed by log-rank statistics.
FIGS. 2a and 2b depicts survival rates of mice treated with minxodil sulfate in accordance with an embodiment of the present invention. Survival of Nude (nu; gray) and C57BL/6 (WT) mice with (solid black) or without (dotted black) vaccination, treated 7-9 days after intracranial GL26 glioma implantation with vehicle (DMSO) or minoxidil sulfate (MS, 2.7 mg/kg in 50 μl, i.v.). Vaccinated mice were injected subcutaneously with […] tumor lysate-pulsed syngeneic DC2.4 dendritic cells 3 and 7 days after GL26 implantation.
GL26 glioma cells were implanted intracranially into T cell-deficient (nude) or syngeneic wild-type (C57BI/6) mice, which were treated with a chemotherapeutic drug alone or with vaccination using GL26 lysate-pulsed DC2.4 dendritic cells. […] (FIG. 1).
Chemosensitivity was modeled by growth of the GL26 glioma in syngeneic C57BL/6 (B6), vaccinated B6, and T cell-deficient nude mice. Tumor implantation was followed by chemotherapeutic drug treatment and/or DC vaccination.

[14] = Homo sapiens, MDA-MB-231, treatment for 24 hours

SMILES: CC1(C)Oc2ccc(S(=O)(=O)Nc3ccccc3)cc2[C@@H](N2CCCCC2=O)[C@@H]1O [KCO912]
- pEC50 ([1]; RG2 Glioma, treatment for 24 hours): < 3.00
- pEC50 ([2]; GL-26 Glioma, treatment for 24 hours): < 3.00
- pEC50 ([3]; U87 Glioma, treatment for 24 hours): < 3.00
- pEC50 ([4]; treatment for 24 hours): 3.90
- pEC50 ([5]; CRL5904 NSC Lung Cancer, treatment for 24 hours): < 3.00
- pEC50 ([6]; HT-29 Colon Cancer, treatment for 24 hours): < 3.00
- pEC50 ([7]; HBMVEC Endothelial, treatment for 24 hours): < 3.00

SMILES: COc1cccc2c1C(=O)c1c(O)c3c(c(O)c1C2=O)C[C@@](O)(C(=O)CO)C[C@@H]3O[C@H]1C[C@H](N)[C@H](O)[C@H](C)O1 [Adriamycin]
- pEC50 ([8]; Mus musculus): > 3.90

SMILES: N.N.O=C([O-])C1(C(=O)[O-])CCC1.[Pt+2] [Carboplatin]
- pEC50 [8]: 3.51

SMILES: CN(Cc1cnc2nc(N)nc(N)c2n1)c1ccc(C(=O)N[C@@H](CCC(=O)O)C(=O)O)cc1 [Methotrexate]
- pEC50 ([8]; Mus musculus): < 3.00

SMILES: Nc1cc(N2CCCCC2)nc(N)[n+]1OS(=O)(=O)[O-] [Minoxidil Sulfate, minoxidil sulfate]
- pEC50 ([1]; Rattus norvegicus, RG2, 24 h): 3.09
- viability at 1000 µM ([9]; after treatment with 1000 μM, read-out: percentage of viable cells remaining): 51%
- pEC50 [9]: < 3.00
- effectiveness as a cytotoxic agent ([10]; C6 rat glioma, WST-1 assay): highly effective
- pEC50 ([10]; Rattus norvegicus, C6 glioma): 3.89
- pEC50 ([2]; Mus musculus, GL26, 24 h): 3.23
- pEC50 ([3]; Homo sapiens, U-87 MG, 24 h): 3.51
- effectiveness as a cytotoxic agent ([3]; U87 human glioma, WST-1 assay): highly effective
- pEC50 [4, 14]: 3.03
- pEC50 ([5]; 24 h): < 3.00
- viability at 1000 µM [5]: 89%
- effectiveness as a cytotoxic agent ([6]; HT-29 human colon cancer, WST-1 assay): highly effective
- pEC50 ([6]; Homo sapiens, HT-29, 24 h): 3.44
- pEC50 [11]: 3.96
- viability at 24 h, 1000 μM [12]: 84%
- pEC50 ([7]; 24 h): < 3.00
- pEC50 ([8]; Mus musculus): 3.23
- survival, C57BL/6 (WT) relative to nu/nu mice [13]: increased survival
- survival, C57BL/6 (WT) relative to nu/nu mice ([13]; listed as MS): significantly increased
- survival ([13]; T cell-deficient nude (nu/nu) hosts): not in nude hosts
- survival ([13]; T cell-deficient nude (nu/nu) hosts, listed as MS): increased survival only in WT hosts
- survival ([13]; wild-type C57BL/6 hosts, with or without DC vaccination): prolonged survival in B6
- survival ([13]; wild-type C57BL/6 hosts, with or without DC vaccination, listed as MS): increased survival
- survival ([13]; wild-type C57BL/6 hosts, with or without DC vaccination, listed as Minoxidil sulfate): enhanced survival

SMILES: CC(N/C(=N\C#N)Nc1ccncc1)C(C)(C)C (stereo not drawn) [Pinacidil, pinacidil]
- pEC50 ([1]; Rattus norvegicus, RG2, 24 h): < 3.00
- viability at 1000 µM ([1]; Rattus norvegicus, RG2, read-out: percentage of viable cells remaining): 69%
- pEC50 [9]: 3.10
- pEC50 ([10]; Rattus norvegicus, C6 glioma): < 3.00
- viability at 1000 µM ([10]; Rattus norvegicus, C6 glioma, read-out: percentage of viable cells remaining): 93%
- pEC50 ([2]; Mus musculus, GL26, 24 h): 3.68
- pEC50 ([3]; Homo sapiens, U-87 MG, 24 h): < 3.00
- viability at 1000 µM ([3]; Homo sapiens, U-87 MG, read-out: percentage of viable cells remaining): 77%
- pEC50 [4, 14]: 3.66
- pEC50 ([5]; 24 h): < 3.00
- viability at 1000 µM [5]: 79.5%
- pEC50 ([6]; Homo sapiens, HT-29, 24 h): < 3.00
- viability at 1000 µM ([6]; Homo sapiens, HT-29, read-out: percentage of viable cells remaining): 74%
- viability at 24 h, 1000 μM [12]: 106%
- pEC50 ([7]; 24 h): < 3.00
- pEC50 ([8]; Mus musculus): 3.68

SMILES: Cn1nnc2c(C(N)=O)ncn2c1=O [Temodar]
- pEC50 ([8]; Mus musculus): < 3.00
